According to US5294720A, “1,4-diamino-2,3-dihydroxybutanes” (The DuPont Merck Pharmaceutical Co., priority 1991, dated 1994):
In brackets after ≈: the same amount, converted by molar mass. Structures can show the parent of a compound that is named as a salt. Where two headings read alike, the source gives them in different places.

How the values were obtained:
HIV protease = target: T1, HIV protease (Human immunodeficiency virus type 1 group M subtype B, UniProt P04585); test: Cell free protease inhibition assay (HIV gag polyprotein cleavage); type: biochemical; conditions: Table XVII, unit inferred, IC50 per method
T1 construct: inclusion bodies of E. coli harboring plasmid containing HIV protease under the control of the T7 promotor; made in house; host or cells: E. coli (A: crude lysate, lac promotor)
Excerpt: HIV gag polyprotein corresponding to all of p17 and 78 amino acids of p24, produced by in vitro translation using rabbit reticulocyte lysate and mRNA prepared in vitro from plasmid encoding full length gag polyprotein linerized with the restriction enzyme Pst 1. (See S. Erickson-Viitanen et al., Aids Research and Human Retroviruses, 5 (6), 577 (1989) for plasmid construction, and basis for assay).
Source of protease: Either (A) crude E. coli lysate of bacteria harboring a plasmid containing HIV protease under the control of the lac promotor, used at a final concentration of 0.5 mg/ml, or (B) inclusion bodies of E. coli harboring plasmid containing HIV protease under the control of the T7 promotor (Cheng et al., Gene, in press (1990). Such inclusion bodies were solubilized in 8M urea, 50 mM Tris pH 8.0. Protease activity was recovered by dilution of the inclusion bodies 20-fold in buffer containing 50 mM Sodium Acetate, pH 5.5, 1 mM EDTA, 10% glycerol and 5% ethylene glycol. This protease source was used at a final concentration of 0.00875 mg/ml.
Inhibitory compounds were dissolved in sufficient DMSO to make a 25 mM stock concentration. All further dilutions were done in DMSO.
Into sterile test tubes were placed the following:
14 ul HIV protease in Phosphate Buffered Saline (Gibco)
5 ul of in vitro translation products.
Reactions were incubated at 30° C., then quenched by the addition of Sample buffer. See U. K. Laemmli, Nature, 1970, 227:680-685.
One fourth of each sample was analyzed on an 8-16% gradient denaturing acrylamide gel (Novex, Inc), according to Laemmli. Following electrophoresis, gels were fixed, impregnated with Enhance (Du Pont NEN, Boston, Mass.) and dried according to manufacturers instructions (NEN). Dried fluorographs were exposed to film and/or quantitated using an Ambis radioanalytic scanner.
Each group of test compounds was compared to the values obtained for pepstatin, a well known inhibitor of acid proteases. Inhibitory concentration for 50% inhibition (IC50) is determined from plots of log concentration inhibitor versus % inhibition of protease activity.
Biological Activity: IC50 is the concentration necessary for reducing the activity of the enzyme by 50%.

HIV(3b) or HIV(Rf) = test: HIV cell assay (HIV low multiplicity assay, protection of MT-2 cells from virus induced cell death, XTT); type: cell-based, Human immunodeficiency virus; conditions: for Cell Assay IC50: unit not given
Protocol: […], a human T-cell line, was cultured in RPMI medium supplemented with 5% (v/v) heat inactivated fetal calf serum (FCS), L-glutamine and gentamycin (GIBCO). Human immunodeficiency virus strains HIV(3b) and HIV (Rf) were propagated in H-9 cells in RPMI with 5% FCS. XTT, benzene-sulfonic acid, 3,3'-[1-[(phenylamino)carbonyl]-3,4-tetrazolium]bis(4-methoxy-6-nitro)-, sodium salt, was obtained from Starks Associates, Inc.
Test compounds were dissolved in dimethyl-sulfoxide to 5 mg/ml and serially diluted into RPMI medium to ten times the desired final concentration. MT-2 cells (5×10E4/0.1 ml) were added to each well of a 96 well culture plate and 0.02 ml of the appropriate test compound solution was added to the cells such that each compound concentration was present in two wells. The cells and compounds were allowed to sit for 30 minutes at room temperature. HIV(3b) or HIV(Rf) (~5×10E5 plaque forming units/ml) was diluted in medium and added to the cell and compound mixtures to give a multiplicity of infection of 0.01 plaque forming unit/cell. The mixtures were incubated for 7 days at 36° C., during which time the virus replicated and caused the death of unprotected cells. The percentage of cells protected from virus induced cell death was determined by the degree of metabolism of the tetrazolium dye, XTT. In living cells, XTT was metabolized to a colored formazan product which was quantitated spectrophoto-metrically at […]. The amount of colored formazan was proportional to the number of cells protected from virus by the test compound. The concentration of compound protecting either 50% (IC50) or 90% (IC90) with respect to an uninfected cell culture was determined.

[1] = read-out: Cell Free Assay (converted)
[2] = Human immunodeficiency virus 1, MT2, Table XVII, unit inferred, HIV in MT-2 cells, read-out: Cell Assay IC90
[3] = Human immunodeficiency virus 1, MT2, Table XVII, unit inferred, HIV in MT-2 cells, read-out: Cell Assay IC50

Row | IC50 (HIV protease; [1]) [µM] | Structure (SMILES) | also measured
1 | 25.6 | CSCCC(NC(=O)OC(C)(C)C)C(O)C(O)C(CCSC)NC(=O)OC(C)(C)C (stereo not shown) [Example 1A] | IC90 (HIV(3b) or HIV(Rf); [2]): 6 µg/mL (≈ 12.8 µM); Cell Assay IC50 (HIV(3b) or HIV(Rf); Table XVII, HIV in MT-2 cells): 2
2 | 78.9 | CSCCC(NC(=O)OC(C)(C)C)C(O)C(O)C(CCSC)NC(=O)OC(C)(C)C (stereo not shown) [Example 1B] | Cell Assay IC50 (HIV(3b) or HIV(Rf); Table XVII, HIV in MT-2 cells): 5
3 | 24 | CC(C)(C)OC(=O)N[C@@H](Cc1ccccc1)[C@H](O)[C@@H](O)[C@H](Cc1ccccc1)NC(=O)OC(C)(C)C [Example 2A, Bis(1,1-dimethylethyl) (2,3-dihydroxy-1,4-(phenylmethyl)-1,4-butanediyl)biscarbamate (1S,2S,3S,4S)] | IC50 (HIV(3b) or HIV(Rf); [3]): 10 µg/mL (≈ 20 µM); IC90 (HIV(3b) or HIV(Rf); [2]): 30 µg/mL (≈ 59.9 µM)
4 | 0.34 | CC(C)(C)OC(=O)N[C@@H](Cc1ccccc1)[C@@H](O)[C@H](O)[C@H](Cc1ccccc1)NC(=O)OC(C)(C)C [Example 2B] | IC50 (HIV(3b) or HIV(Rf); [3]): 1.9 µg/mL (≈ 3.8 µM); IC90 (HIV(3b) or HIV(Rf); [2]): 3 µg/mL (≈ 5.99 µM)
5 | 61.9 | CC(C)(C)OC(=O)N[C@@H](Cc1ccccc1)[C@H](O)[C@H](O)[C@H](Cc1ccccc1)NC(=O)OC(C)(C)C [Example 2C, Bis(1,1-dimethylethyl) (2,3-dihydroxy-1,4-(phenylmethyl)-1,4-butanediyl)biscarbamate (1S,2S,3R,4S)] | 
6 | 1200 | CC(C)(C)OC(=O)NCC(O)C(O)CNC(=O)OC(C)(C)C (stereo not shown) [Example 3, Bis(1,1-dimethylethyl) (2,3-dihydroxy-1,4-butanediyl)biscarbamate] | 
7 | 1250 | CC(NC(=O)OC(C)(C)C)C(O)C(O)C(C)NC(=O)OC(C)(C)C (stereo not shown) [Example 4, Bis(1,1-dimethylethyl) (2,3-dihydroxy-1,4-dimethyl-1,4-butanediyl)biscarbamate] | 
8 | 161 | CC(C)C(NC(=O)OC(C)(C)C)C(O)C(O)C(NC(=O)OC(C)(C)C)C(C)C (stereo not shown) [Example 5, Bis(1,1-dimethylethyl) (2,3-dihydroxy-1,4-(1-methylethyl)-1,4-butanediyl)biscarbamate] | 
9 | 11.1 | CC(C)CC(NC(=O)OC(C)(C)C)C(O)C(O)C(CC(C)C)NC(=O)OC(C)(C)C (stereo not shown) [Example 6, Bis(1,1-dimethylethyl) (2,3-dihydroxy-1,4-(2-methylpropyl)-1,4-butanediyl)biscarbamate] | 
10 | 1250 | CC(C)(C)OC(=O)N1CCCC1C(O)C(O)C1CCCN1C(=O)OC(C)(C)C (stereo not shown) [Example 7, Bis(1,1-dimethylethyl) 2,2'-(1,2-dihydroxy-1,2-ethanediyl)-1-bis(pyrrolidinecarboxylate)] | 
11 | 1250 | CC(C)(C)OC(=O)NC(c1ccccc1)C(O)C(O)C(NC(=O)OC(C)(C)C)c1ccccc1 (stereo not shown) [Example 8, Bis (1,1-dimethylethyl) (2,3-dihydroxy-1,4-diphenyl-1,4-butanediyl)biscarbamate] | 
12 | 0.914 | O=C(NC(Cc1ccccc1)C(O)C(O)C(Cc1ccccc1)NC(=O)OCc1ccccc1)OCc1ccccc1 (stereo not shown) [Example 9] | 
13 | 1130 | CC(C)(C)OC(=O)NC(CCc1ccccc1)C(O)C(O)C(CCc1ccccc1)NC(=O)OC(C)(C)C (stereo not shown) [Example 10, Bis(1,1-dimethylethyl) (2,3-dihydroxy-1,4-(2-phenylmethyl)-1,4-butanediyl)biscarbamate] | 
14 | 37.3 | CC(C)(C)OC(=O)NC(Cc1ccc(F)cc1)C(O)C(O)C(Cc1ccc(F)cc1)NC(=O)OC(C)(C)C (stereo not shown) [Example 11] | 
15 | 5.45 | CC(C)(C)OC(=O)NC(Cc1ccc(I)cc1)C(O)C(O)C(Cc1ccc(I)cc1)NC(=O)OC(C)(C)C (stereo not shown) [Example 12] | 
16 | 6.2 | CC(C)(C)OC(=O)NC(Cc1ccc(O)cc1)C(O)C(O)C(Cc1ccc(O)cc1)NC(=O)OC(C)(C)C (stereo not shown) [Example 13, Bis(1,1-dimethylethyl) (2,3-dihydroxy-1,4-(4-hydroxyphenyl)methyl-1,4-butaneidyl)biscarbamate] | IC50 (HIV(3b) or HIV(Rf); [3]): 2.3 µg/mL (≈ 4.32 µM); IC90 (HIV(3b) or HIV(Rf); [2]): 25 µg/mL (≈ 46.9 µM)
17 | 1250 | CC(=O)N[C@@H](Cc1ccccc1)[C@@H](O)[C@H](O)[C@H](Cc1ccccc1)NC(C)=O [Example 14, N,N'-((2,3-dihydroxy-1,4-(phenylmethyl)-1,4-butanediyl))bisacetamide] | 
18 | 866 | N[C@@H](Cc1ccccc1)[C@H](O)[C@@H](O)[C@@H](N)Cc1ccccc1 [Example 15, 2,5-Diamino-1,6-diphenyl-3,4-hexanediol dihydrochloride] | 
19 | 866 | N[C@@H](Cc1ccccc1)[C@@H](O)[C@H](O)[C@@H](N)Cc1ccccc1 [Example 16, 2,5-Diamino-1,6-diphenyl-3,4-hexanediol dihydrochloride] | 
20 | 1260 | CC(N)C(O)C(O)C(C)N (stereo not shown) [Example 17, 2,5-Diamino-3,4-hexanediol dihydrochloride] | 
21 |  | CC(NC(=O)C(NC(=O)OC(C)(C)C)C(C)O)C(=O)NC(C(=O)NC(C)C(=O)NC(Cc1ccccc1)C(O)C(O)C(Cc1ccccc1)NC(=O)C(C)NC(=O)C(NC(=O)C(C)NC(=O)C(NC(=O)OC(C)(C)C)C(C)O)C(C)O)C(C)O (stereo not drawn) [Example 18, Bis(Boc-Thr-Ala-Thr-Ala), N,N'((2,3-dihydroxy-1,4-(phenylmethyl)-1,4-butanediyl))biscarbamate] | IC50 (HIV protease; read-out: Cell Free Assay): 1.93 µM; IC50 (HIV(3b) or HIV(Rf); Human immunodeficiency virus 1, MT2, read-out: Cell Assay IC50): 6 µg/mL (≈ 5.04 µM); IC90 (HIV(3b) or HIV(Rf); Human immunodeficiency virus 1, MT2, read-out: Cell Assay IC90): 12 µg/mL (≈ 10.1 µM)
22 | 0.0131 | CC[C@H](C)[C@H](NC(=O)Cc1ccccn1)C(=O)N[C@@H](Cc1ccccc1)[C@@H](O)[C@H](O)[C@H](Cc1ccccc1)NC(=O)[C@@H](NC(=O)Cc1ccccn1)[C@@H](C)CC [Example 20, 2,5-(N-2-Pyridylacetyl-L-Ile)diamino-1,6-diphenyl-3,4-hexanediol] | IC50 (HIV(3b) or HIV(Rf); [3]): < 1 µg/mL; IC90 (HIV(3b) or HIV(Rf); [2]): < 1 µg/mL
23 | 0.00261 | CCC(C)C(NC(=O)Cc1ccccn1)C(=O)NC(Cc1ccccc1)C(O)C(O)C(Cc1ccccc1)NC(=O)C(NC(=O)Cc1ccccn1)C(C)CC [Example 21, 2,5-(N-2-Pyridyl-L-Ile,N'-2-pyridyl-D-Ile)diamino-1,6-diphenyl-3,4-hexanediol] | IC50 (HIV(3b) or HIV(Rf); [3]): 6 µg/mL (≈ 7.84 µM)
